Test results taken from article PMC12084297, “Cytoplasmic connexin43-microtubule interactions promote glioblastoma stem-like cell maintenance and tumorigenicity” (Cell Death & Disease, 2025).

What was measured:
Type in all cases: cell-based, human
[1] = test system: Cx43/α-tubulin interaction; assay: Co-immunoprecipitation with α-tubulin antibody: Cx43 interaction with α-tubulin; details: VTC-037 GSCs, 50 μM, 24 h, cross-linked (DTBP)
Protocol: Prior to lysis, cross-linking was completed by incubating cells in DTBP (dimethyl 3,3’-dithiobispropionimidate; 2 mM in PBS) for 30 min at 37 °C followed by a glycine quench (100 mM glycine in PBS) for 15 min at room temperature. Cross-linked samples were lysed in RIPA buffer supplemented with Halt^TM Protease and Phosphatase Inhibitor Cocktail as described above, but without sonication. Co-immunoprecipitation (co-IP) assays were also performed without cross-linking; non-cross-linked samples were lysed using a co-IP lysis buffer (0.5% Triton X-100, 50 mM Tris HCl, 150 mM NaCl, 1 mM EDTA, 1 mM EGTA, 1 mM DTT, 0.1 mM Na3VO4, and 1 mM NaF) supplemented with Halt^TM Protease and Phosphatase Inhibitor Cocktail, without sonication. Protein concentration was quantified using the DC protein assay and a standard curve obtained with increasing concentrations of BSA, and 500 μg of total protein was used per reaction for co-IP. Inputs were removed prior to co-IP and denatured in Bolt LDS sample buffer as described above. Remaining protein lysates were incubated with Protein G Sepharose^TM 4 Fast Flow beads (GE Healthcare) for pre-clearance for 30 min at 4 °C. Samples were incubated with 2 μg of mouse anti-α-tubulin (MilliporeSigma, T6199) for cross-linked samples or mouse anti-Cx43 antibody (EMD Millipore; MAB3067) for non-cross-linked samples for 90 min at 4 °C. […]

[2] = test system: VTC-034 GSCs; assay: MTS viability, VTC-034 GSCs; details: VTC-034 adherent GSCs, 10, 50 or 100 μM, 4 days
Protocol: Cells were plated in 96-well plates (2000–5000 cells per well) and treated the following day with TMZ (10, 50, or 100 μM), antennapedia, JM2-scrambled, or JM2 (10, 50, or 100 μM). After 4 days, cell viability was monitored following addition of MTS reagent (Promega) according to manufacturer’s instructions. The absorbance at 490 nm was measured using a SpectraMax i3 or iD3 microplate reader (Molecular Devices). For the caspase 3/7 activity assay, cells were plated in 96-well plates (2000 cells per well) and treated with TMZ or peptides as described above. The activity of caspase 3/7 was measured after 48 h using the Caspase-Glo® 3/7 assay (Promega) following the manufacturer’s instructions. Fold change of caspase 3/7 activity was defined as the ratio of caspase 3/7 luminescence in treated cells compared to controls.

[3] = test system: VTC-001 GSCs; assay: Limiting dilution analysis (ELDA), VTC-001 GSCs; details: VTC-001, 100 μM every other day, 2 weeks; compared to JM2-scrambled or control
Protocol: GSCs and PDX GBM22 cells were plated as single cell suspension in low-attachment 96-well plates (GSCs: 100–500 cells per well; GBM22 cells: 500–2000 cells per well), using methods similar to those reported previously. Cells were then treated with peptides every other day. 2 weeks later, gliospheres were observed using phase contrast microscopy on a Revolve microscope (Echo Laboratories). The number of gliospheres was then determined, while the gliosphere size was assessed by diameter measurement. To evaluate stem cell frequency in GSCs, gliosphere formation assay was performed with limiting cell dilutions with cells plated at varying densities in low-attachment 96-well plates. Cells were treated with peptides every other day, and after 2 weeks, gliosphere-positive wells were observed and scored using phase contrast microscopy on a Revolve microscope. The stem cell frequency was analyzed using the online data analysis program ELDA (Extreme Limiting Dilution Analysis).
All quantification was performed on experiments repeated at least three times. Statistical analysis was conducted with GraphPad Prism (GraphPad Software). Data were analyzed for significance using Student’s t test, one-way ANOVA with Tukey’s multiple comparisons test, and presented as mean ± SD. […] Statistical significance between experimental groups was determined using chi-square (χ²) tests within the ELDA framework. […]

[4] = test system: HES1 mRNA; assay: HES1 mRNA by RT-qPCR, VTC-001 GSCs; details: 50 μM, 24 h, compared to antennapedia alone
Protocol: RNA was extracted using the PureLink^TM RNA mini extraction kit (Thermo Fisher) and on-column DNA digestion was completed using PureLink^TM DNase according to the manufacturer’s instructions. RNA was reverse transcribed to generate cDNA using the iScript^TM Reverse Transcription SuperMix for RT-qPCR kit (Bio-Rad Laboratories). Real-time PCR was performed using the SYBR select Master Mix for CFX (Thermo Fisher) in hard-shell 96-well PCR plates (Bio-Rad Laboratories) on a CFX Connect Real Time System (Bio-Rad Laboratories). Primer sequences used were: hNOTCH1_Fwd: 5’-CGCACAAGGTGTCTTCCAG-3’; hNOTCH1_Rev: 5’-CGGCGTGTGAGTTGATGA-3’; hHES1_Fwd: 5’-GGCTGGAGAGGCGGCTAA-3’; hHES1_Rev: 5’-[…]-3’; hHEY1_Fwd: 5’-[…]-3’; hHEY1_Rev: 5’-[…]-3’.

With VFFKGVKDRVKGRSD [JM2] the “Cx43 interaction with α-tubulin (co-IP)” value [1] was “decrease in Cx43 interaction with α-tubulin”, the “GSC survival (MTS)” value [2] was “significantly decreased VTC-001, VTC-034, and VTC-037 GSC survival when cultured as adherent cells in a dose-dependent manner” and the “GSC frequency / self-renewal (limiting dilution)” value [3] was “significant decrease in VTC-001, VTC-034, and VTC-037 GSC frequency”. The “Hes1 mRNA expression” value [4] was “significantly decreased the expression of Notch downstream targets Hes1 and Hey1 at the transcription level”.
